Source: patent publication US20170304369A1, “METHODS OF DIFFERENTIATING STEM CELLS INTO LIVER CELL LINEAGES” (Agency for Science, Technology and Research, priority 2014, published 2017)

What was measured:
hPSC-derived DE = experiment: Foregut specification: treatment of hPSC-derived DE (day 3), downstream gene expression by RT-qPCR; format: cell-based, human; settings: for downstream LB gene expression (AFP, CEBPA, TBX3, HNF1B) / expression of MHG markers CDX2 and EVX1: 24 h during foregut specification; for HNF6, PROX1 and HEX expression: Wnt inhibition during foregut specification
Source text: RT-quantitative PCR was used to quantify gene expression. […] During liver development, populations of definitive endoderm cells are first patterned along the anterior-posterior axis to form either the foregut or mid/hindgut. In the present invention the effects of signaling inhibition on the developmental competence of the foregut cells to give rise to the liver bud (LB) cells was examined. Competence is defined as the capacity of one stem cell or progenitor cell to differentiate into its daughter cell type. For example, the posterior foregut is competent when it could give rise to its daughter cell types such as the pancreatic endoderm and LB cells.

hepatic progenitors = experiment: Treatment of hepatic progenitors (days 13-18), hepatocyte-like cell, periportal versus perivenous gene expression; format: cell-based, human
PFG cells = experiment: Liver bud (LB) specification from posterior foregut, days 4-6, gene expression; format: cell-based, human
Procedure: (§1) mTeSR1-grown hPSCs were cultured and differentiated as follows: • a) hPSCs cells were seeded at 1:12 as small clumps using Accutase (Millipore, Cat#SCR005) and Geltrex (Lifetech, Cat#A1413302). • b) Anterior Primitive Streak (day 1) was specified using Activin A (100 ng/ml), CHIR99021 (3 μM), PI-103 (50 nM) and Fgf2 (10 ng/ml) in serumless CDM2 basal medium for 24 hr. • c) Activin A (100 ng/ml) and DM3189 (250 nM) and PI-103 (50 nM) were added in the same basal medium for 24 hr to induce Definitive Endoderm (DE) (day 2). • d) DE was then patterned into PFG by using A83-01 (1 μM), RA (2 μM), BMP4 (30 ng/ml) and Fgf2 (10 ng/ml) in CDM KOSR basal media for another 24 hrs. • e) PFG was further differentiated to LB progenitors using Activin A (100 ng/ml), 8-bromo-CAMP (1 mM) and BMP4 (10 ng/ml) in CDM KOSR basal media for 3 days (day 4 to 6). • f) LB progenitors were treated with BMP4 (10 ng/ml), Oncostatin M (10 ng/ml), Dexamethasone ([…]), DAPT, C59 (1 μM) or RO4919097 (2 μM), forskolin ([…]), human recombinant insulin (10 μg/ml), ascorbic acid-2 phosphate (200 μg/ml), L-gluthathione ([…]) and amino acid concentrate and in IMDM/F12 media for the next 6 days (day 7 to 12) to induce hepatic progenitors. • g) Hepatic progenitors were treated with Dexamethasone (10 μM), RO4929097 (2 μM) or DAPT (10 μM), Forskolin (10 μM), human recombinant insulin (10 μg/ml), ascorbic acid-2 phosphate (200 μg/ml) in IMDM/F12 media for 6 days (day 13 to 18) to generate hepatocyte-like cells. Intra-Splenic Transplantation into FRG^−/− Mice
(§2) RNA was extracted using Zymo RNA extraction kit. RT-quantitative PCR was used to quantify gene expression. Primer sequences were designed by NCBI Primer Tool and primer specificity and linearity was tested before usage for gene expression analyses.
The signaling pathways, including Retinoic, Nodal/Activin, Bmp, PKA, FGF and Wnt signaling, were explored to determine if they could directly regulate LB specification.

hPSC-derived LB cells = experiment: Hepatic progenitor specification from hPSC-derived LB cells (days 7-12), liver gene expression
Procedure: as §1, §2
To identify the signals that regulate the progression of the LB progenitors from an ALB- to a more differentiated ALB+ state, multiple signaling pathways were systematically screened for their effects on ALB expression (including FGF, WNT, Notch, HGF, cAMP/PKA, TGFβ, and BMP).

## Cc1cc(-c2ccc(CC(=O)Nc3ccc(-c4cccnc4)cc3)cc2)ccn1 [C59, 2-(4-(2-methylpyridin-4-yl)phenyl)-N-(4-(pyridin-3-yl)phenyl)acetamide]
hPSC-derived DE
  downstream LB gene expression (AFP, CEBPA, TBX3, HNF1B): severely reduces
  expression of MHG markers CDX2 and EVX1: reduces
  HNF6, PROX1 and HEX expression: upregulated
Hepatic progenitors
  expression of ALB, CYP3A7: promotes

## COC(=O)[C@@]1(OC)C[C@H]2O[C@]1(C)n1c3ccccc3c3c4c(c5c6ccccc6n2c5c31)C(=O)N(C)C4 [KT5823, (9S,10R,12R)-2,3,9,10,11,12-Hexahydro-10-methoxy-2,9-dimethyl-1-oxo-9,12-epoxy-1H-diindolo[1,2,3-fg:3′,2′,1′-kl]pyrrolo[3,4-i][1,6]benzodiazocine-10-carboxylic acid, methyl ester]
Hepatic progenitors; PKG antagonists
  expression of FAH, PAH, HGD, TAT, CPS1, ARG1, FBA, FBB and FBG: upregulate

## Activin: activator of TGFβ signaling
PFG cells; 10 ng/ml during LB specification
  later expression of ALB in subsequent differentiation: increases
PFG cells; day 4 to 6
  HNF4A, HNF1A, and TBX3 levels: increases
  LB expression (AFP and CEBPA): reduces
PFG cells; increasing the dose
  LB marker expression: seems to reduce
PFG cells; treatment during LB specification (days 4-6)
  expression of ALB on day 13: enhances
Hepatic progenitors
  periportal genes: downregulation

## DKK1: Dickkopf 1, inhibitor of Wnt signaling
hPSC-derived DE
  downstream LB gene expression (AFP, CEBPA, TBX3, HNF1B): severely reduces
  expression of MHG markers CDX2 and EVX1: reduces
  HNF6, PROX1 and HEX expression: upregulated
Hepatic progenitors
  expression of ALB, CYP3A7: promotes

## human recombinant insulin: activator of insulin signaling
hPSC-derived LB cells
  expression of ALB, CPS1 and CYP3A4: strongly enhanced
hPSC-derived LB cells; days 7 to 12
  expression of PAH, HGD, HPD, TAT, MAI, and FAH: significantly increases
Hepatic progenitors
  tyrosine metabolic genes and xenobiotic metabolic genes such as CYP3A4: continues to enhance
